Values belong to the molecule of their own block, whether it stands above or below them.
Target: Human indoleamine 2,3-dioxygenase (IDO) (Homo sapiens (Human), UniProt P14902)
Experiment: Human Indoleamine 2,3-Dioxygenase (IDO) Enzyme Assay
Type: biochemical
Conditions: assay of Example A, 95 nM IDO, 2 mM D-Trp, pH 6.5, room temperature
From the text: Human indoleamine 2,3-dioxygenase (IDO) with an N-terminal His tag was expressed in E. coli and purified to homogeneity. IDO catalyzes the oxidative cleavage of the pyrrole ring of the indole nucleus of tryptophan to yield N′-formylkynurenine.

Chain of Human indoleamine 2,3-dioxygenase (IDO) (P14902 whole entry): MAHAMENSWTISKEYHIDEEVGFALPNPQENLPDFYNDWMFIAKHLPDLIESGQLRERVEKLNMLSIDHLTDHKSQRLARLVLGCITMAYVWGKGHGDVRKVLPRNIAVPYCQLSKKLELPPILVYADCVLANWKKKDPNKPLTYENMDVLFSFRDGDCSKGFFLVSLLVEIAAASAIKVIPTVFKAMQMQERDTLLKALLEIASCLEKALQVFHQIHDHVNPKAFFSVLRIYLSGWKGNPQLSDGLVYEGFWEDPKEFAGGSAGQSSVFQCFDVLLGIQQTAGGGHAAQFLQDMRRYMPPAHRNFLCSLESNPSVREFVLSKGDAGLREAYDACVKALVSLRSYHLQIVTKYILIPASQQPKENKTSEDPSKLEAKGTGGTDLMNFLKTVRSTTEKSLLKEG

Compound: CS(=O)(=O)NCCNc1nonc1C(=NO)Nc1ccc(F)c(Cl)c1 [Example 6, N-(3-Chloro-4-fluorophenyl)-N′-hydroxy-4-({2-[(methylsulfonyl)amino]ethyl}amino)-1,2,5-oxadiazole-3-carboximidamide]
- IC50 (Table 2): < 200 nM

Compound: CS(=O)(=O)NCCNc1nonc1C(=NO)Nc1ccc(F)c(C(F)(F)F)c1 [Example 10, N-[4-Fluoro-3-(trifluoromethyl)phenyl]-N′-hydroxy-4-({2-[(methylsulfonyl)amino]ethyl}amino)-1,2,5-oxadiazole-3-carboximidamide]
- IC50 (Table 2): < 100 nM

Compound: NS(=O)(=O)NCCNc1nonc1C(=NO)Nc1cccc(C(F)(F)F)c1 [Example 13, 4-({2-[(Aminosulfonyl)amino]ethyl}amino)-N′-hydroxy-N-[3-(trifluoromethyl)phenyl]-1,2,5-oxadiazole-3-carboximidamide]
- IC50 (Table 2): < 500 nM

Compound: CS(=O)(=O)NCCNc1nonc1C(=NO)Nc1cccc(C(F)(F)F)c1 [Example 14, N′-Hydroxy-4-({2-[(methylsulfonyl)amino]ethyl}amino)-N-[3-(trifluoromethyl)phenyl]-1,2,5-oxadiazole-3-carboximidamide]
- IC50 (Table 2): < 200 nM

Compound: CS(=O)(=O)NCCCNc1nonc1C(=NO)Nc1cccc(C(F)(F)F)c1 [Example 16, N′-Hydroxy-4-({3-[(methylsulfonyl)amino]propyl}amino)-N-[3-(trifluoromethyl)phenyl]-1,2,5-oxadiazole-3-carboximidamide]
- IC50 (Table 2): < 200 nM

Compound: CS(=O)(=O)NCCNc1nonc1C(=NO)Nc1ccc(F)c(C#N)c1 [Example 19, N-(3-Cyano-4-fluorophenyl)-N′-hydroxy-4-({2-[(methylsulfonyl)amino]ethyl}amino)-1,2,5-oxadiazole-3-carboximidamide]
- IC50 (Table 2): < 500 nM

Compound: NS(=O)(=O)NCCNc1nonc1C(=NO)NCc1cc(Br)co1 [Example 20, 4-({2-[(Aminosulfonyl)amino]ethyl}amino)-N-[(4-bromo-2-furyl)methyl]-N′-hydroxy-1,2,5-oxadiazole-3-carboximidamide]
- IC50 (Table 3): < 500 nM

Compound: NS(=O)(=O)NCCNc1nonc1C(=NO)NCc1cc(Cl)co1 [Example 21, 4-({2-[(Aminosulfonyl)amino]ethyl}amino)-N-[(4-chloro-2-furyl)methyl]-N′-hydroxy-1,2,5-oxadiazole-3-carboximidamide]
- IC50 (Table 3): < 750 nM

The next lines start with the values.

- IC50 (Table 2): < 100 nM
Compound: NS(=O)(=O)NCCCNc1nonc1C(=NO)Nc1ccc(F)c(Br)c1 [Example 3, 4-({3-[(Aminosulfonyl)amino]propyl}amino)-N-(3-bromo-4-fluorophenyl)-N′-hydroxy-1,2,5-oxadiazole-3-carboximidamide]

- IC50 (Table 2): < 100 nM
Compound: CS(=O)(=O)NCCCNc1nonc1C(=NO)Nc1ccc(F)c(Br)c1 [Example 4, N-(3-Bromo-4-fluorophenyl)-N′-hydroxy-4-({3-[(methylsulfonyl)amino]propyl}amino)-1,2,5-oxadiazole-3-carboximidamide]

- IC50 (Table 2): < 200 nM
Compound: NS(=O)(=O)NCCNc1nonc1C(=NO)Nc1ccc(F)c(Cl)c1 [Example 5, 4-({2-[(Aminosulfonyl)amino]ethyl}amino)-N-(3-chloro-4-fluorophenyl)-N′-hydroxy-1,2,5-oxadiazole-3-carboximidamide]

- IC50 (Table 2): < 200 nM
Compound: NS(=O)(=O)NCCCNc1nonc1C(=NO)Nc1ccc(F)c(Cl)c1 [Example 7, 4-({3-[(Aminosulfonyl)amino]propyl}amino)-N-(3-chloro-4-fluorophenyl)-N′-hydroxy-1,2,5-oxadiazole-3-carboximidamide]

- IC50 (Table 2): < 200 nM
Compound: CS(=O)(=O)NCCCNc1nonc1C(=NO)Nc1ccc(F)c(Cl)c1 [Example 8, N-(3-Chloro-4-fluorophenyl)-N′-hydroxy-4-({3-[(methylsulfonyl)amino]propyl}amino)-1,2,5-oxadiazole-3-carboximidamide]

- IC50 (Table 2): < 100 nM
Compound: NS(=O)(=O)NCCNc1nonc1C(=NO)Nc1ccc(F)c(C(F)(F)F)c1 [Example 9, 4-({2-[(Aminosulfonyl)amino]ethyl}amino)-N-[4-fluoro-3-(trifluoromethyl)phenyl]-N′-hydroxy-1,2,5-oxadiazole-3-carboximidamide]

- IC50 (Table 2): < 100 nM
Compound: NS(=O)(=O)NCCCNc1nonc1C(=NO)Nc1ccc(F)c(C(F)(F)F)c1 [Example 11, 4-({3-[(Aminosulfonyl)amino]propyl}amino)-N-[4-fluoro-3-(trifluoromethyl)phenyl]-N′-hydroxy-1,2,5-oxadiazole-3-carboximidamide]

- IC50 (Table 2): < 100 nM
Compound: CS(=O)(=O)NCCCNc1nonc1C(=NO)Nc1ccc(F)c(C(F)(F)F)c1 [Example 12, N-[4-Fluoro-3-(trifluoromethyl)phenyl]-N′-hydroxy-4-({3-[(methylsulfonyl)amino]propyl}amino)-1,2,5-oxadiazole-3-carboximidamide]

- IC50 (Table 2): < 200 nM
Compound: NS(=O)(=O)NCCCNc1nonc1C(=NO)Nc1cccc(C(F)(F)F)c1 [Example 15, 4-({3-[(Aminosulfonyl)amino]propyl}amino)-N′-hydroxy-N-[3-(trifluoromethyl)phenyl]-1,2,5-oxadiazole-3-carboximidamide]

- IC50 (Table 2): < 500 nM
Compound: Cc1cc(NC(=NO)c2nonc2NCCNS(C)(=O)=O)ccc1F [Example 17, N-(4-Fluoro-3-methylphenyl)-N′-hydroxy-4-({2-[(methylsulfonyl)amino]ethyl}amino)-1,2,5-oxadiazole-3-carboximidamide]

- IC50 (Table 2): < 750 nM
Compound: N#Cc1cc(NC(=NO)c2nonc2NCCNS(N)(=O)=O)ccc1F [Example 18, 4-({2-[(Aminosulfonyl)amino]ethyl}amino)-N-(3-cyano-4-fluorophenyl)-N′-hydroxy-1,2,5-oxadiazole-3-carboximidamide]

— US20240173303A1, “1,2,5-Oxadiazoles As Inhibitors Of Indoleamine 2,3- Dioxygenase” (Incyte Corporation, priority 2008, published 2024)
